Test results from the CheMixHub viscosity set.

Test: xn = mol fraction of the nth substance listed

C1CCOCC1 + CCCCO
viscosity [mPa·s], 101.3 kPa
Conditions | x1 = 0.0478 | x1 = 0.0969 | x1 = 0.1984 | x1 = 0.288 | x1 = 0.3973 | x1 = 0.5005 | x1 = 0.6788 | x1 = 0.7023 | x1 = 0.8041 | x1 = 0.9024
298.15 K | 2.294 | 2.056 | 1.662 | 1.426 | 1.222 | 1.087 | 0.931 | 0.9162 | 0.8645 | 0.8316
313.15 K | 1.633 | 1.483 | 1.255 | 1.086 | 0.9459 | 0.8494 | 0.7345 | 0.7252 | 0.6832 | 0.6584

CC(C)C1CCCCC1 + CCCCO
viscosity [mPa·s], 100 kPa
Conditions | x1 = 0.0995 | x1 = 0.1998 | x1 = 0.2959 | x1 = 0.4009 | x1 = 0.4944 | x1 = 0.5738 | x1 = 0.6818 | x1 = 0.7966 | x1 = 0.8935
293.15 K | 2.489 | 2.126 | 1.858 | 1.614 | 1.45 | 1.325 | 1.214 | 1.139 | 1.105
298.15 K | 2.189 | 1.884 | 1.654 | 1.449 | 1.31 | 1.207 | 1.114 | 1.051 | 1.022
303.15 K | 1.94 | 1.678 | 1.481 | 1.308 | 1.189 | 1.104 | 1.024 | 0.974 | 0.95
308.15 K | 1.726 | 1.501 | 1.332 | 1.185 | 1.085 | 1.014 | 0.947 | 0.905 | 0.885
313.15 K | 1.539 | 1.348 | 1.203 | 1.078 | 0.994 | 0.935 | 0.879 | 0.844 | 0.827
318.15 K | 1.379 | 1.216 | 1.092 | 0.985 | 0.915 | 0.866 | 0.818 | 0.789 | 0.774
323.15 K | 1.241 | 1.1 | 0.995 | 0.906 | 0.845 | 0.804 | 0.764 | 0.738 | 0.727

CC(Cl)(Cl)Cl + CCCCO
298.15 K, 101 kPa
Conditions | viscosity [mPa·s]
x1 = 0.1022 | 2.187
x1 = 0.2068 | 1.872
x1 = 0.3061 | 1.611
x1 = 0.4067 | 1.372
x1 = 0.5174 | 1.164
x1 = 0.605 | 1.042
x1 = 0.6995 | 0.936
x1 = 0.7924 | 0.855
x1 = 0.9022 | 0.811

O=CC(Br)(Br)Br + CCCCO
viscosity [mPa·s], 101.33 kPa
Conditions | x1 = 0.1 | x1 = 0.2 | x1 = 0.3 | x1 = 0.4 | x1 = 0.5 | x1 = 0.6 | x1 = 0.7 | x1 = 0.797 | x1 = 0.899
293.15 K | 4.71 | 6.92 | 10.15 | 15.97 | 22.38 | 21.27 | 15.08 | 11.21 | 9.11
313.15 K | 2.56 | 3.84 | 4.96 | 7.06 | 8.81 | 8.39 | 6.2 | 4.97 | 4.21

CC(Cl)(Cl)Cl + CCCO
298.15 K, 101 kPa
Conditions | viscosity [mPa·s]
x1 = 0.0572 | 1.789
x1 = 0.1154 | 1.667
x1 = 0.193 | 1.506
x1 = 0.3007 | 1.318
x1 = 0.3956 | 1.165
x1 = 0.49 | 1.045
x1 = 0.6367 | 0.909
x1 = 0.7983 | 0.824
x1 = 0.8861 | 0.799

CC(Cl)(Cl)Cl + CCCOCCC
298.15 K, 101.33 kPa
Conditions | viscosity [mPa·s]
x1 = 0.101 | 0.4245
x1 = 0.198 | 0.4478
x1 = 0.299 | 0.4745
x1 = 0.398 | 0.5036
x1 = 0.5 | 0.5365
x1 = 0.601 | 0.5733
x1 = 0.7 | 0.6147
x1 = 0.8 | 0.6632
x1 = 0.85 | 0.6907

CC(Cl)(Cl)Cl + CCO
viscosity [mPa·s], 101.32 kPa
Conditions | x2 = 0.1602 | x2 = 0.3002 | x2 = 0.4237 | x2 = 0.5336 | x2 = 0.6318 | x2 = 0.7202 | x2 = 0.8001 | x2 = 0.8728 | x2 = 0.9392
303.15 K | 0.705 | 0.745 | 0.778 | 0.839 | 0.87 | 0.902 | 0.924 | 0.942 | 0.984
313.15 K | 0.614 | 0.669 | 0.683 | 0.71 | 0.745 | 0.761 | 0.784 | 0.807 | 0.819
323.15 K | 0.56 | 0.597 | 0.604 | 0.614 | 0.639 | 0.655 | 0.664 | 0.684 | 0.692

CC(Cl)(Cl)Cl + CCOC(C)=O
Conditions | viscosity [mPa·s]
298.15 K, 101.33 kPa, x1 = 0.098 | 0.4485
298.15 K, 101.33 kPa, x1 = 0.197 | 0.4712
298.15 K, 101.33 kPa, x1 = 0.297 | 0.4964
298.15 K, 101.33 kPa, x1 = 0.398 | 0.5244
298.15 K, 101.33 kPa, x1 = 0.498 | 0.5554
298.15 K, 101.33 kPa, x1 = 0.598 | 0.5901
298.15 K, 101.33 kPa, x1 = 0.699 | 0.6295
298.15 K, 101.33 kPa, x1 = 0.771 | 0.665
298.15 K, 101.33 kPa, x1 = 0.885 | 0.7192
303.15 K, 101.3 kPa, x2 = 0.1006 | 0.6668
303.15 K, 101.3 kPa, x2 = 0.1989 | 0.6158
303.15 K, 101.3 kPa, x2 = 0.2986 | 0.5731
303.15 K, 101.3 kPa, x2 = 0.4038 | 0.5366
303.15 K, 101.3 kPa, x2 = 0.4965 | 0.5101
303.15 K, 101.3 kPa, x2 = 0.5999 | 0.4831
303.15 K, 101.3 kPa, x2 = 0.7003 | 0.4579
303.15 K, 101.3 kPa, x2 = 0.7974 | 0.4366
303.15 K, 101.3 kPa, x2 = 0.9008 | 0.4167

CCCCCCCCn1cc[n+](C)c1.[Cl][Fe-]([Cl])([Cl])[Cl] + CCOC(C)=O
viscosity [mPa·s], 101 kPa
Conditions | x1 = 0.0999 | x1 = 0.197 | x1 = 0.2987 | x1 = 0.3989 | x1 = 0.4986 | x1 = 0.6004 | x1 = 0.6958 | x1 = 0.7939 | x1 = 0.8777
293.15 K | 1.47 | 3.56 | 7.5 | 13.82 | 23.21 | 37.15 | 58.2 | 85.97 | 111.8
298.15 K | 1.38 | 3.24 | 6.65 | 11.97 | 19.68 | 30.95 | 47.6 | 69.55 | 91.12
303.15 K | 1.29 | 2.97 | 5.94 | 10.48 | 16.88 | 26.07 | 39.75 | 56.28 | 73.83
308.15 K | 1.21 | 2.72 | 5.33 | 9.22 | 14.61 | 22.2 | 33.32 | 46.86 | 59.83
313.15 K | 1.14 | 2.52 | 4.81 | 8.17 | 12.77 | 19.08 | 28.28 | 39.4 | 49.32
318.15 K | 1.07 | 2.33 | 4.37 | 7.31 | 11.24 | 16.49 | 24.27 | 33.42 | 41.48
323.15 K | 1.02 | 2.16 | 3.99 | 6.6 | 9.97 | 14.4 | 20.98 | 28.43 | 35.08

O=CO + CN(C)C=O
303.15 K, 101 kPa
Conditions | viscosity [mPa·s]
x1 = 0.1513 | 0.848
x1 = 0.2841 | 0.986
x1 = 0.4038 | 1.16
x1 = 0.6144 | 1.45
x1 = 0.7869 | 1.58
x1 = 0.8657 | 1.58
